In patent US9670212B2, “Inhibitors of PI3K-delta and methods of their use and manufacture” (Exelixis, Inc., priority 2010, dated 2017):

biological target: PI3K delta (Homo sapiens (Human), UniProt O00329); test: Luciferase-coupled chemiluminescence kinase assay (KinaseGlo, ATP consumption); format: biochemical
How it was run: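 Kinase, compound and ATP (at or below KM) reacted 2 h at ambient temperature; remaining ATP detected by KinaseGlo luciferase chemiluminescence as percent ATP consumed. 10-point dose-response, curves fitted to give IC50.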

Chain of PI3K delta (O00329 whole entry): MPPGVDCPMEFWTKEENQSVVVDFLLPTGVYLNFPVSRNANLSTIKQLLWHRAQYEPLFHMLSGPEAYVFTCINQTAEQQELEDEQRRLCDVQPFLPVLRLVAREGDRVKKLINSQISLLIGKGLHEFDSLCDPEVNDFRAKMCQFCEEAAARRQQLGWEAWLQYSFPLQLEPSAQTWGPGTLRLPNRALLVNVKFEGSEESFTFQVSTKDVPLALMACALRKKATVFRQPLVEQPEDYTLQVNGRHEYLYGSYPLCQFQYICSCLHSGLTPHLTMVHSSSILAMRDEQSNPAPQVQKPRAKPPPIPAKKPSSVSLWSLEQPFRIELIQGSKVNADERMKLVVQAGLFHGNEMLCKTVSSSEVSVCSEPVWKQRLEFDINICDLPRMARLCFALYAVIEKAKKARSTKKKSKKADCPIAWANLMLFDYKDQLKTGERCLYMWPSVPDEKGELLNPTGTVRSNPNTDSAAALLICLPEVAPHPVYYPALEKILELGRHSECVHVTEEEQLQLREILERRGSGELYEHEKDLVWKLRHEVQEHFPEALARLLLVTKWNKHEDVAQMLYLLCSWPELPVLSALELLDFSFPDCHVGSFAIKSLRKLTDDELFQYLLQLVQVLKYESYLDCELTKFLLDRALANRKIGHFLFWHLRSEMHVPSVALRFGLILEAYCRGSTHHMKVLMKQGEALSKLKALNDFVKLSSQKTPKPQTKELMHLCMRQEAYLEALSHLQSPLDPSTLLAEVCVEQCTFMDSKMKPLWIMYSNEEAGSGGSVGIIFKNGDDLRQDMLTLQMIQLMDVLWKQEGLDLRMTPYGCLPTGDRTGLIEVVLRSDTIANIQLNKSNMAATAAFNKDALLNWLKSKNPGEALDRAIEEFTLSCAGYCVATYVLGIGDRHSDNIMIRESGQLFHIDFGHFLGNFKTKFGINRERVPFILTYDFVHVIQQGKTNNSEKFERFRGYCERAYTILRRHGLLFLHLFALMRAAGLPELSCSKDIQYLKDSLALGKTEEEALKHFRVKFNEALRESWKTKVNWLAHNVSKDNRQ
Chain of PI3K delta (P27986 whole entry partner): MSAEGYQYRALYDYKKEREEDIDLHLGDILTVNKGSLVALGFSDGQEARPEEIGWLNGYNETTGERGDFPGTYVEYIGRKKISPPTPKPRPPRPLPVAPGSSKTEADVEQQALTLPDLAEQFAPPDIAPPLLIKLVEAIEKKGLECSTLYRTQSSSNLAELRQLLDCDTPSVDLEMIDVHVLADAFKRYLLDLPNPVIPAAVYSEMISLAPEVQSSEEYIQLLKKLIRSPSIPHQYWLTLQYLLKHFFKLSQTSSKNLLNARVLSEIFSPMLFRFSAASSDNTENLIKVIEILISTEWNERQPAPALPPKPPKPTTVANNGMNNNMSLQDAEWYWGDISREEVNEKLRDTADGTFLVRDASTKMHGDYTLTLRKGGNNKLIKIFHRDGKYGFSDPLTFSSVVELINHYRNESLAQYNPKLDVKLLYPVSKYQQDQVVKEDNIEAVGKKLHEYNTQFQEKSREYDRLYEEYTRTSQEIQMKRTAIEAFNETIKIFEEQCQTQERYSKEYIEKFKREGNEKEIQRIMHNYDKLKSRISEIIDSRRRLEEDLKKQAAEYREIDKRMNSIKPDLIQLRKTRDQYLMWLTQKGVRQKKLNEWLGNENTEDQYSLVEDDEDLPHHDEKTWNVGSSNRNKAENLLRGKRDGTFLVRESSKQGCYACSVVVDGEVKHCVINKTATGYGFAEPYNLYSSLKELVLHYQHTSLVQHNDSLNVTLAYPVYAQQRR

Row | SMILES | IC50 [nM]
1 | COCCN(C)c1nc2c(C)cccc2cc1CNc1ncnc2[nH]cnc12 [Compound 25, N,8-dimethyl-N-[2-(methyloxy)ethyl]-3-[(9H-purin-6-ylamino)methyl]quinolin-2-amine] | < 50
2 | Cc1cccc2cc(CNC(=O)c3nccnc3N)c(N(C)CCN(C)C(=O)Cn3cnnn3)nc12 [Compound 42, 3-amino-N-{[8-methyl-2-(methyl{2-[methyl(1H-tetrazol-1-ylacetyl)amino]ethyl}amino)quinolin-3-yl]methyl}pyrazine-2-carboxamide] | < 50
3 | Cc1cccc2cc(CSc3ncnc4[nH]cnc34)c(N(C)CC3CCN(C)CC3)nc12 [Compound 1, N,8-dimethyl-N-[(1-methylpiperidin-4-yl)methyl]-3-[(9H-purin-6-ylthio)methyl]quinolin-2-amine] | 50 to 250
4 | CNCCN(C)c1nc2c(C)cccc2cc1CNc1ncnc2[nH]cnc12 [Compound 36, N,N′-dimethyl-N-{8-methyl-3-[(9H-purin-6-ylamino)methyl]quinolin-2-yl}ethane-1,2-diamine] | < 50
5 | Cc1cccc2cc(CNC(=O)c3nccnc3N)c(N(C)CCNC(=O)Cn3ccnn3)nc12 [Compound 51, 3-amino-N-{[8-methyl-2-(methyl{2-[(1H-1,2,3-triazol-1-ylacetyl)amino]ethyl}amino)quinolin-3-yl]methyl}pyrazine-2-carboxamide] | 50 to 250
6 | Cc1cccc2cc(CNC(=O)c3nccnc3N)c(N(C)CCN(C)C(=O)Cn3cccn3)nc12 [Compound 49, 3-amino-N-{[8-methyl-2-(methyl{2-[methyl(1H-pyrazol-1-ylacetyl)amino]ethyl}amino)quinolin-3-yl]methyl}pyrazine-2-carboxamide] | < 50
7 | COc1cccc(CNCc2cc3cccc(C)c3nc2-c2ccccc2Cl)c1 [Compound 6, 1-[2-(2-chlorophenyl)-8-methylquinolin-3-yl]-N-{[3-(methyloxy)phenyl]methyl}methanamine] | 500 to 1500
8 | Cc1cccc2cc(CNC(=O)c3nccnc3N)c(N(C)CCN(C)C(=O)c3ccncc3)nc12 [Compound 79, 3-amino-N-{[8-methyl-2-(methyl{2-[methyl(pyridin-4-ylcarbonyl)amino]ethyl}amino)quinolin-3-yl]methyl}pyrazine-2-carboxamide] | 50 to 250
9 | Cc1cccc2cc(CNC(=O)c3nccnc3N)c(N3CCCN(C(=O)Cn4ccnc4)CC3)nc12 [Compound 54, 3-amino-N-({2-[4-(1H-imidazol-1-ylacetyl)-1,4-diazepan-1-yl]-8-methylquinolin-3-yl}methyl)pyrazine-2-carboxamide] | 500 to 1500
10 | Cc1cccc2cc(Cn3cnc4c(N)ncnc43)c(N(C)CC3CCCN3C)nc12 (stereo not shown) [Compound 2, 3-[(6-amino-9H-purin-9-yl)methyl]-N,8-dimethyl-N-[(1-methylpyrrolidin-2-yl)methyl]quinolin-2-amine] | < 50
11 | Cc1cccc2cc(CNc3ncnc4[nH]cnc34)c(N3CCc4ccccc4C3)nc12 [Compound 19, N-{[2-(3,4-dihydroisoquinolin-2(1H)-yl)-8-methylquinolin-3-yl]methyl}-9H-purin-6-amine] | 500 to 1500
12 | Cc1cccc2cc(CNC(=O)c3nccnc3N)c(N(C)CCN(C)Cc3cccnc3)nc12 [Compound 83, 3-amino-N-{[8-methyl-2-(methyl{2-[methyl(pyridin-3-ylmethyl)amino]ethyl}amino)quinolin-3-yl]methyl}pyrazine-2-carboxamide] | < 50
13 | Cc1cccc2cc(CNC(=O)c3nccnc3N)c(N(Cc3ccccn3)Cc3ccccn3)nc12 [Compound 47, 3-amino-N-({2-[bis(pyridin-2-ylmethyl)amino]-8-methylquinolin-3-yl}methyl)pyrazine-2-carboxamide] | 500 to 1500
14 | Nc1nccnc1C(=O)NCc1nc2ccccc2cc1-c1ccccc1CN1CCCCC1 [Compound 59, 3-amino-N-({3-[2-(piperidin-1-ylmethyl)phenyl]quinolin-2-yl}methyl)pyrazine-2-carboxamide] | 50 to 250
15 | CNCCN(C)c1nc2c(C)cccc2cc1CNC(=O)C1(C(=O)NC)CC1 [Compound 40, N-methyl-N′-[(8-methyl-2-{methyl[2-(methylamino)ethyl]amino}quinolin-3-yl)methyl]cyclopropane-1,1-dicarboxamide] | 500 to 1500
16 | Cc1cccc2cc(CNC(=O)c3nccnc3N)c(N3CCCN(Cc4ccncc4)CC3)nc12 [Compound 65, 3-amino-N-({8-methyl-2-[4-(pyridin-4-ylmethyl)-1,4-diazepan-1-yl]quinolin-3-yl}methyl)pyrazine-2-carboxamide] | 500 to 1500
17 | Cc1cccc2cc(Cn3cnc4c(N)ncnc43)c(N3CCc4ccccc4C3)nc12 [Compound 14, 9-{[2-(3,4-dihydroisoquinolin-2(1H)-yl)-8-methylquinolin-3-yl]methyl}-9H-purin-6-amine] | 500 to 1500
18 | Cc1ccccc1-c1cc2ccccc2nc1CNC(=O)c1cnc(N)nc1 [Compound 74, 2-amino-N-{[3-(2-methylphenyl)quinolin-2-yl]methyl}pyrimidine-5-carboxamide] | 500 to 1500
19 | CNC(=O)CN(C)CCN(C)c1nc2c(C)cccc2cc1CNC(=O)c1nccnc1N [Compound 76, 3-amino-N-({8-methyl-2-[methyl(2-{methyl[2-(methylamino)-2-oxoethyl]amino}ethyl)amino]quinolin-3-yl}methyl)pyrazine-2-carboxamide] | 50 to 250
20 | Cc1cccc2cc(CNC(=O)c3nccnc3N)c(N(C)CCN(C)Cc3ccccn3)nc12 [Compound 68, 3-amino-N-{[8-methyl-2-(methyl{2-[methyl(pyridin-2-ylmethyl)amino]ethyl}amino)quinolin-3-yl]methyl}pyrazine-2-carboxamide] | 50 to 250
21 | Cc1cccc2nc(CNC(=O)c3nccnc3N)c(-c3ccccc3CN(C)C)cc12 [Compound 52, 3-amino-N-[(3-{2-[(dimethylamino)methyl]phenyl}-5-methylquinolin-2-yl)methyl]pyrazine-2-carboxamide] | < 50

Results, then the compound that gave them:

Row | IC50 [nM] | SMILES
22 | 250 to 500 | Cc1cccc2cc(CNC(=O)c3nccnc3N)c(-n3ccnc3)nc12 [Compound 111, 3-amino-N-{[2-(1H-imidazol-1-yl)-8-methylquinolin-3-yl]methyl}pyrazine-2-carboxamide]
23 | 50 to 250 | Cc1cccc2cc(CNC(=O)c3nccnc3N)c(N(C)CCN(C)C(=O)c3cncn3C)nc12 [Compound 110, 3-amino-N-({8-methyl-2-[methyl(2-{methyl[(1-methyl-1H-imidazol-5-yl)carbonyl]amino}ethyl)amino]quinolin-3-yl}methyl)pyrazine-2-carboxamide]
24 | 250 to 500 | CC(=O)N1CCN(c2nc3c(C)cccc3cc2CNC(=O)c2nccnc2N)CC1 [Compound 124, N-{[2-(4-acetylpiperazin-1-yl)-8-methylquinolin-3-yl]methyl}-3-aminopyrazine-2-carboxamide]
25 | 50 to 250 | Cc1cccc2cc(CNC(=O)c3nccnc3N)c(N(C)CCN(C)C(=O)[C@H]3CCCN3)nc12 [Compound 102, 3-amino-N-{[8-methyl-2-(methyl{2-[methyl(D-prolyl)amino]ethyl}amino)quinolin-3-yl]methyl}pyrazine-2-carboxamide]
26 | 250 to 500 | Cc1cccc2cc(CNC(=O)c3nccnc3N)c(N3CCCN(C)CC3)nc12 [Compound 140, 3-amino-N-{[8-methyl-2-(4-methyl-1,4-diazepan-1-yl)quinolin-3-yl]methyl}pyrazine-2-carboxamide]
27 | 500 to 1500 | Cc1cccc2cc(Cn3cnc4c(N)ncnc43)c(N3CC4CC3CN4C)nc12 (stereo not shown) [Compound 150, 9-{[8-methyl-2-(5-methyl-2,5-diazabicyclo[2.2.1]hept-2-yl)quinolin-3-yl]methyl}-9H-purin-6-amine]
28 | 500 to 1500 | Cc1ccccc1-c1cc2ccccc2cc1Cn1cnc2c(N)ncnc21 [Compound 120, 9-{[3-(2-methylphenyl)naphthalen-2-yl]methyl}-9H-purin-6-amine]
29 | 500 to 1500 | Cc1cccc2cc(CNC(=O)c3nccnc3N)c(N3CCCCC3)nc12 [Compound 147, 3-amino-N-[(8-methyl-2-piperidin-1-ylquinolin-3-yl)methyl]pyrazine-2-carboxamide]
30 | 50 to 250 | Cc1cccc2cc(CNC(=O)c3nccnc3N)c(N(C)CCN(C)C(=O)CN(C)C)nc12 [Compound 114, 3-amino-N-({2-[{2-[(N,N-dimethylglycyl)(methyl)amino]ethyl}(methyl)amino]-8-methylquinolin-3-yl}methyl)pyrazine-2-carboxamide]
31 | 500 to 1500 | Cc1cccc2cc(CNC(=O)c3nccnc3N)c(NCCN(C)C)nc12 [Compound 129, 3-amino-N-[(2-{[2-(dimethylamino)ethyl]amino}-8-methylquinolin-3-yl)methyl]pyrazine-2-carboxamide]
32 | 500 to 1500 | Cc1ccccc1-c1nc2ccccc2cc1Cn1cnc2c(N)ncnc21 [Compound 191, 9-{[2-(2-methylphenyl)quinolin-3-yl]methyl}-9H-purin-6-amine]
33 | 250 to 500 | Cc1cccc(-c2nc3c(C)cccc3cc2Cn2cnc3c(N)ncnc32)c1 [Compound 183, 9-{[8-methyl-2-(3-methylphenyl)quinolin-3-yl]methyl}-9H-purin-6-amine]
34 | 50 to 250 | CNCCCN(C)c1nc2c(C)cccc2cc1CNC(=O)c1nccnc1N [Compound 133, 3-amino-N-[(8-methyl-2-{methyl[3-(methylamino)propyl]amino}quinolin-3-yl)methyl]pyrazine-2-carboxamide]
35 | 250 to 500 | CNCCN(C)c1nc2c(C)cccc2cc1CNC(=O)c1nccnc1N [Compound 130, 3-amino-N-[(8-methyl-2-{methyl[2-(methylamino)ethyl]amino}quinolin-3-yl)methyl]pyrazine-2-carboxamide]
36 | 50 to 250 | Cc1cccc2cc(CNC(=O)c3nccnc3N)c(N(C)CCN(C)C(=O)[C@@H]3CCCN3C)nc12 [Compound 113, 3-amino-N-{[8-methyl-2-(methyl{2-[methyl(1-methyl-L-prolyl)amino]ethyl}amino)quinolin-3-yl]methyl}pyrazine-2-carboxamide]
37 | 50 to 250 | Cc1cccc2cc(CNC(=O)c3nccnc3N)c(-c3ccccc3Cl)nc12 [Compound 148, 3-amino-N-{[2-(2-chlorophenyl)-8-methylquinolin-3-yl]methyl}pyrazine-2-carboxamide]
